Source: patent publication US9504685B2, “Method for treating a pulmonary hypertension condition” (Gilead Sciences, Inc., priority 2006, dated 2016)

Test system: subjects with PAH
Assay: Example 2 (ARIES-1) placebo-controlled Phase III trial, efficacy
Type: in vivo, human
Conditions: for Clinical worsening event: Atrial septostomy / Clinical worsening event: Death / Clinical worsening event: Escape criteria / Clinical worsening event: Hospitalization for PAH / Clinical worsening event: Lung transplantation / Clinical worsening event: Study discontinuation due to addition of PAH treatment / Clinical worsening: Total subjects with ≧1 event / subjects hospitalized for worsening right heart failure / subjects who had an event of clinical worsening: 12 weeks; for Change in 6MWD from baseline to Week 12, mean: ITT population; for geometric mean percent change in plasma BNP, decrease from baseline / geometric mean percent change in plasma ET-1, increase from baseline: Week 12
Method: The primary objective of this study was to determine the effect of ambrisentan on exercise capacity in subjects with pulmonary arterial hypertension (PAH). The secondary objectives of this study were to evaluate effects of ambrisentan on other clinical measures of PAH, as well as safety and tolerability of the study drug.
Study drug was provided in round, biconvex, oral tablets that were identical in appearance. Three strengths of active study drug containing 2.5 mg, 5 mg or 10 mg of ambrisentan were used in this study. All study drug was packaged in blister cards. Subjects were instructed to take study drug once daily (q.d.) by mouth (p.o.) in the morning, with or without food.
The maximum study duration was up to 14 weeks from the time of initial screening procedures to the final study visit (Week 12). Screening procedures were performed a maximum of 2 weeks prior to the first dose of study drug. The maximum duration of study drug treatment was 12 weeks.
Men and women, 18 years of age or older, with idiopathic PAH, PAH associated with CTD, e.g., mixed CTD, CREST syndrome, systemic sclerosis (scleroderma), overlap syndrome or systemic lupus erythematosus, or PAH associated with anorexigen use or HIV infection were enrolled in this study. Subjects were to have a documented mean PAP≧25 mmHg, PVR>3 mmHgL/min, and PCWP or LVEDP<15 mmHg. Subjects must have been able to walk a distance of at least 150 m but no more than 450 m during 2 consecutive 6MWTs to be eligible for inclusion in the study.
After a 2 week screening period, eligible subjects were stratified based on the underlying etiology of PAH (idiopathic or non-idiopathic) and were randomized to 1 of 3 treatment groups (placebo, 5 mg or 10 mg ambrisentan) in a ratio of 1:1:1. One blinded dose reduction was permitted during the 12-week treatment period in the event of study drug intolerance (e.g., 10 mg to 5 mg, 5 mg to 2.5 mg, placebo to placebo). Subjects received a daily dose of 2.5 mg ambrisentan only if they reduced from the 5 mg dose group. Subjects were assessed for efficacy and safety at monthly intervals.
Therefore, after a minimum treatment period of 4 weeks, subjects who met 2 or more of the following predefined early escape criteria may have been removed from the study: • (a) a decrease from baseline of at least 20% in 6MWD; • (b) an increase of 1 or more WHO functional class; • (c) worsening right ventricular failure (e.g., as indicated by increased jugular venous pressure, new or worsening hepatomegaly, ascites or peripheral edema); • (d) rapidly progressing cardiogenic, hepatic or renal failure; and/or • (e) refractory systolic hypotension (systolic blood pressure <85 mmHg).
The primary efficacy endpoint was change from baseline in 6MWD evaluated after 12 weeks of treatment compared to placebo.
The secondary efficacy endpoints included: • (a) time to clinical worsening of PAH, as defined by the time from randomization to the first occurrence of death, lung transplantation, hospitalization for PAH, atrial septostomy, study discontinuation due to addition of other PAH therapeutic agents, or study discontinuation due to 2 or more early escape criteria; • (b) change from baseline measured after 12 weeks of treatment compared to placebo in: • (i) WHO functional class; • (ii) SF-36® health survey physical functioning scale; • (iii) BDI immediately following exercise; and/or • (iv) an assessment of the safety and tolerability of the study drug; and • (c) change from baseline measured after 12 weeks of treatment compared to placebo in plasma levels of ET-1, BNP and cTnT. Safety Assessments
For the ITT population, subjects were considered as belonging to their randomized treatment group, regardless of the actual treatment received.
The primary efficacy endpoint was the change from baseline in 6MWD evaluated after 12 weeks of treatment compared to placebo, where the last observation was carried forward. […]

[1] = 5 mg once daily, baseline to Week 12
[2] = 10 mg once daily, baseline to Week 12

COC(c1ccccc1)(c1ccccc1)[C@H](Oc1nc(C)cc(C)n1)C(=O)O [ambrisentan]
placebo-adjusted improvement in mean 6MWD at Week 12 (5 mg once daily): +30.6 m
subjects at least maintaining their baseline WHO functional class at Week 12 (5 mg once daily): 98.5%
Clinical worsening event: Atrial septostomy (5 mg once daily): 0 (0.0) subjects (% of ITT population)
Clinical worsening event: Death (5 mg once daily): 1 (1.5) subjects (% of ITT population)
Clinical worsening event: Escape criteria (5 mg once daily): 0 (0.0) subjects (% of ITT population)
Clinical worsening event: Hospitalization for PAH (5 mg once daily): 2 (3.0) subjects (% of ITT population)
Clinical worsening event: Lung transplantation (5 mg once daily): 0 (0.0) subjects (% of ITT population)
Clinical worsening event: Study discontinuation due to addition of PAH treatment (5 mg once daily): 0 (0.0) subjects (% of ITT population)
Clinical worsening: Total subjects with ≧1 event (5 mg once daily): 3 (4.5) subjects (% of ITT population)
subjects hospitalized for worsening right heart failure (5 mg once daily): 1 subjects
subjects who had an event of clinical worsening (5 mg once daily): 3 subjects
Change in 6MWD from baseline to Week 12, mean (5 mg once daily): +22.8 meters
geometric mean percent change in plasma BNP, decrease from baseline (5 mg once daily): 30%
geometric mean percent change in plasma ET-1, increase from baseline (5 mg once daily): 96%
Change in SF-36 Bodily pain, mean (SD) [1]: −1.43 ± 13.21
Change in SF-36 General health, mean (SD) [1]: +0.08 ± 8.45
Change in SF-36 Mental component summary, mean (SD) [1]: +0.50 ± 10.50
Change in SF-36 Mental health, mean (SD) [1]: +0.81 ± 9.67
Change in SF-36 Physical component summary, mean (SD) [1]: +1.88 ± 8.68
Change in SF-36 Physical functioning, mean (SD) [1]: +3.86 ± 7.14
Change in SF-36 Role-emotional, mean (SD) [1]: +1.41 ± 13.95
Change in SF-36 Role-physical, mean (SD) [1]: +4.22 ± 10.52
Change in SF-36 Social functioning, mean (SD) [1]: +1.11 ± 13.63
Change in SF-36 Vitality, mean (SD) [1]: +2.38 ± 10.06
Change in WHO functional class: +1 class [1]: 1 (1.5) subjects (% of ITT population)
Change in WHO functional class: +2 classes [1]: 0 (0.0) subjects (% of ITT population)
Change in WHO functional class: no change [1]: 47 (70.1) subjects (% of ITT population)
Change in WHO functional class: −1 class [1]: 18 (26.9) subjects (% of ITT population)
Change in WHO functional class: −2 classes [1]: 1 (1.5) subjects (% of ITT population)
placebo-adjusted improvement in mean 6MWD at Week 12 (10 mg once daily): +51.4 m
subjects at least maintaining their baseline WHO functional class at Week 12 (10 mg once daily): 95.5%
Clinical worsening event: Atrial septostomy (10 mg once daily): 0 (0.0) subjects (% of ITT population)
Clinical worsening event: Death (10 mg once daily): 1 (1.5) subjects (% of ITT population)
Clinical worsening event: Escape criteria (10 mg once daily): 2 (3.0) subjects (% of ITT population)
Clinical worsening event: Hospitalization for PAH (10 mg once daily): 2 (3.0) subjects (% of ITT population)
Clinical worsening event: Lung transplantation (10 mg once daily): 0 (0.0) subjects (% of ITT population)
Clinical worsening event: Study discontinuation due to addition of PAH treatment (10 mg once daily): 1 (1.5) subjects (% of ITT population)
Clinical worsening: Total subjects with ≧1 event (10 mg once daily): 3 (4.5) subjects (% of ITT population)
subjects hospitalized for worsening right heart failure (10 mg once daily): 1 subjects
subjects who had an event of clinical worsening (10 mg once daily): 3 subjects
Change in 6MWD from baseline to Week 12, mean (10 mg once daily): +43.6 meters
geometric mean percent change in plasma BNP, decrease from baseline (10 mg once daily): 45%
geometric mean percent change in plasma ET-1, increase from baseline (10 mg once daily): 48%
Change in SF-36 Bodily pain, mean (SD) [2]: +2.26 ± 12.22
Change in SF-36 General health, mean (SD) [2]: +3.25 ± 8.81
Change in SF-36 Mental component summary, mean (SD) [2]: +2.11 ± 13.17
Change in SF-36 Mental health, mean (SD) [2]: +1.55 ± 12.66
Change in SF-36 Physical component summary, mean (SD) [2]: +4.79 ± 7.90
Change in SF-36 Physical functioning, mean (SD) [2]: +4.52 ± 7.16
Change in SF-36 Role-emotional, mean (SD) [2]: +2.98 ± 17.37
Change in SF-36 Role-physical, mean (SD) [2]: +6.67 ± 10.35
